{"source": "ChEMBL document CHEMBL1138371", "about": "“Discovery of low nanomolar non-hydroxamate inhibitors of tumor necrosis factor-alpha converting enzyme (TACE)” (Bioorg Med Chem Lett, 2007)", "key": {"Interstitial collagenase": {"target": "T1, Interstitial collagenase (Homo sapiens, UniProt P03956)", "T1 sequence (P03956 whole entry)": "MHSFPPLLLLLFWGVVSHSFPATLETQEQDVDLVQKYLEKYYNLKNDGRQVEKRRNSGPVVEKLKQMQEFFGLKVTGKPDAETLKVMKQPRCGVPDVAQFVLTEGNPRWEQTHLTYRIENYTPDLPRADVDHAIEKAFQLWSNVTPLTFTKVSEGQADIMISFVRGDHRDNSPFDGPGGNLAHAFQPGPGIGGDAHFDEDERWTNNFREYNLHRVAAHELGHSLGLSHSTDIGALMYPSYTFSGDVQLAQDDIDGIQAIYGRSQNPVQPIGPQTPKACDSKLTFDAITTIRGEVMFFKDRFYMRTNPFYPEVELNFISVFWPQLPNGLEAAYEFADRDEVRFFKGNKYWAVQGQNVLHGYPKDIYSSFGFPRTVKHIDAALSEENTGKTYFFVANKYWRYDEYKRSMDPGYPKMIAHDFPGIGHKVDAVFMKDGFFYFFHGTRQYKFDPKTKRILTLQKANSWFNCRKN", "test": "Inhibition of MMP1"}, "Homo sapiens": {"organism": "Homo sapiens", "test": "Inhibition of aggrecanase at 1 uM"}, "[1]": {"target": "72 kDa type IV collagenase (Homo sapiens, UniProt P08253)", "sequence (P08253 whole entry)": "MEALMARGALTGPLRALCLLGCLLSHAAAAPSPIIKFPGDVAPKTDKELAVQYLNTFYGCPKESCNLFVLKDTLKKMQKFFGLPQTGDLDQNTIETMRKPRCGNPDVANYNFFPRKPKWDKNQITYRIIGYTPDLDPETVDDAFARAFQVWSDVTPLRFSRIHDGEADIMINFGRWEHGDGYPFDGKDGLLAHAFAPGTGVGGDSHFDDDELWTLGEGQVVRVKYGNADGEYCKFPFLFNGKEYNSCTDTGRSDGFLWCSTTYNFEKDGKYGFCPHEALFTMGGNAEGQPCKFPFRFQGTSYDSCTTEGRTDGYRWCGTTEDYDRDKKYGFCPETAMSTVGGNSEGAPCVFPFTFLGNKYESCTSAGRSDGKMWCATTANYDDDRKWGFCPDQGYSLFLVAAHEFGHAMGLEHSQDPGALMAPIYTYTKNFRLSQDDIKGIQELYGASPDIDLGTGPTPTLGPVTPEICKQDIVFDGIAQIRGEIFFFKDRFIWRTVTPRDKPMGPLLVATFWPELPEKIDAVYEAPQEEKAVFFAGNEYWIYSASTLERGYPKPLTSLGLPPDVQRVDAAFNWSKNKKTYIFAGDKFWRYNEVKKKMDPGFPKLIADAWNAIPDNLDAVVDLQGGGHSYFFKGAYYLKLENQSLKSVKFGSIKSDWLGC", "test": "Inhibition of MMP2"}, "Matrilysin": {"target": "T2, Matrilysin (Homo sapiens, UniProt P09237)", "T2 sequence (P09237 whole entry)": "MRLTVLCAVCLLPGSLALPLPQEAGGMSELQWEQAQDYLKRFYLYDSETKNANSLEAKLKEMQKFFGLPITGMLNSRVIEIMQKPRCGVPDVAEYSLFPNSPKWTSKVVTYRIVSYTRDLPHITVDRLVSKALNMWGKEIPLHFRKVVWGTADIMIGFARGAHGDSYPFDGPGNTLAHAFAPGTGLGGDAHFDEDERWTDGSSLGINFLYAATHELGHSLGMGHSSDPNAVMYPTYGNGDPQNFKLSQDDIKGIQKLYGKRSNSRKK", "test": "Inhibition of MMP7"}, "[2]": {"target": "Macrophage metalloelastase (Homo sapiens, UniProt P39900)", "sequence (P39900 whole entry)": "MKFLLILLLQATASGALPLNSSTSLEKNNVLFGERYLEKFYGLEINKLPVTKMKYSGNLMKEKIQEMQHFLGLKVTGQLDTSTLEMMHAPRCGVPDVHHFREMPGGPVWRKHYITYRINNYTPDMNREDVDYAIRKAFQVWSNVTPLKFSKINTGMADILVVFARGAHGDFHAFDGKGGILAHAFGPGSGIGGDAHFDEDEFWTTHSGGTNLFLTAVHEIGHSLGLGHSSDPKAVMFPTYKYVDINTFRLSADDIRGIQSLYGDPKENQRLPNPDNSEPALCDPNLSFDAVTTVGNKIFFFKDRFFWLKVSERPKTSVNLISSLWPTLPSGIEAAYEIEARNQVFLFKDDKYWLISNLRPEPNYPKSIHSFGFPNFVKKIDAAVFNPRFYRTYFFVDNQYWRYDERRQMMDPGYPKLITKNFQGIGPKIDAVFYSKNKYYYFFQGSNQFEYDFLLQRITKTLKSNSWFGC", "test": "Inhibition of MMP12"}, "Stromelysin-1": {"target": "Stromelysin-1 (Homo sapiens, UniProt P08254)", "sequence (P08254 whole entry)": "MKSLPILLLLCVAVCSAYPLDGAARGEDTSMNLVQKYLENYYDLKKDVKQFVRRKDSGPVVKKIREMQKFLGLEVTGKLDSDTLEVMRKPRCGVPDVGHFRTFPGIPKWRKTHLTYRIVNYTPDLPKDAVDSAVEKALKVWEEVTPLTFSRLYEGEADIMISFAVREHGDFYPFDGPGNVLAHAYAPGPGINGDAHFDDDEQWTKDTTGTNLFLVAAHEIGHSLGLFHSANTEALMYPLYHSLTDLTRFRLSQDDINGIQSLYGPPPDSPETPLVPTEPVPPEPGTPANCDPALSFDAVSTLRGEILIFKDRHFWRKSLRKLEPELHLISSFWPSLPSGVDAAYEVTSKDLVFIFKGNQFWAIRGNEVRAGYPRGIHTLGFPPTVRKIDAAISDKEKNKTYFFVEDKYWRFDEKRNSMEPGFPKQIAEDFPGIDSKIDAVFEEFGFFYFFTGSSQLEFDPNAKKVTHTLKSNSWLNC", "test": "Inhibition of MMP3"}, "[3]": {"target": "Matrix metalloproteinase-9 (Homo sapiens, UniProt P14780)", "sequence (P14780 whole entry)": "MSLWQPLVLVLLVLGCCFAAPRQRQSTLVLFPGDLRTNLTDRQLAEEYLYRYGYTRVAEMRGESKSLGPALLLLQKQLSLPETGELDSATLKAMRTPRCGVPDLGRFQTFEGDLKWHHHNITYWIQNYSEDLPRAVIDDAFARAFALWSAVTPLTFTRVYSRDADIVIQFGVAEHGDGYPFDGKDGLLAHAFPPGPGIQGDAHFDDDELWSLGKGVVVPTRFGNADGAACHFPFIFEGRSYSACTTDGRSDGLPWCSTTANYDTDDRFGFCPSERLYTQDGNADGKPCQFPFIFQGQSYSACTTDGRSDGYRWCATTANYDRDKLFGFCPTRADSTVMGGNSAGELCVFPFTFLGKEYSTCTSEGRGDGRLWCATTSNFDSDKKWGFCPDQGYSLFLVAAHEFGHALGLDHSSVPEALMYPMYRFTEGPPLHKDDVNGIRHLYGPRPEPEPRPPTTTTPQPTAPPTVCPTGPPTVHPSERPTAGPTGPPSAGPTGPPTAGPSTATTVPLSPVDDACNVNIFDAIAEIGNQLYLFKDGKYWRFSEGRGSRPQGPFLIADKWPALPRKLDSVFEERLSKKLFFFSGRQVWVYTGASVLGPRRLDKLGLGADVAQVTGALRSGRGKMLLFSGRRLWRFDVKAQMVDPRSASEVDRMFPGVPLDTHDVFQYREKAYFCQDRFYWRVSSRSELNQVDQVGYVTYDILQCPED", "test": "Inhibition of MMP9"}, "[4]": {"target": "Disintegrin and metalloproteinase domain-containing protein 17 (Sus scrofa, UniProt O77636)", "sequence (O77636 whole entry, the tested form may be a part)": "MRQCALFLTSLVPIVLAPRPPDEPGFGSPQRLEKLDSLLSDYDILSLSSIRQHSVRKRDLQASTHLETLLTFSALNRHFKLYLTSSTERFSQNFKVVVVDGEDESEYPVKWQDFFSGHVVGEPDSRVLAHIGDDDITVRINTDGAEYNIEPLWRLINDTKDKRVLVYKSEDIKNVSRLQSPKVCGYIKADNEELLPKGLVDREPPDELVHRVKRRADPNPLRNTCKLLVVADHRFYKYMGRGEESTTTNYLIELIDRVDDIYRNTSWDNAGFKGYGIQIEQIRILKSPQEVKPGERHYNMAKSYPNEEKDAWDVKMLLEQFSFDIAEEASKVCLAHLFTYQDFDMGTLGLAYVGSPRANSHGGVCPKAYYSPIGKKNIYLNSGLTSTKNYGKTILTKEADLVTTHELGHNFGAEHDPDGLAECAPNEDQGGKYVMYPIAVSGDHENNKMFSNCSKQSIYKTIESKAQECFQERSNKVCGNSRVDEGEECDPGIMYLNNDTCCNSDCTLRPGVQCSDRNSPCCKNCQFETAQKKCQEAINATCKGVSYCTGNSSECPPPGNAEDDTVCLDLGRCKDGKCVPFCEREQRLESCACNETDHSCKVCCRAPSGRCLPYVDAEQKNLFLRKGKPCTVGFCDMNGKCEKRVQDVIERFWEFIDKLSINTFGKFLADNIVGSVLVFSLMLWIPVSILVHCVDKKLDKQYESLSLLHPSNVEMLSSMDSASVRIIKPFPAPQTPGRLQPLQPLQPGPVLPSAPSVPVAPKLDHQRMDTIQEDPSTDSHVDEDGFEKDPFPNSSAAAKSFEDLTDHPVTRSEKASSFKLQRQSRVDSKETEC", "test": "Inhibition of porcine TACE"}, "Collagenase 3": {"target": "Collagenase 3 (Homo sapiens, UniProt P45452)", "test": "Inhibition of MMP13"}}, "note": "pIC50, pKi: −log10 of the molar value.", "data": [{"smiles": "Cc1cc(COc2ccc(C(=O)NCC3(C)C(=O)NC(=O)NC3=O)cc2)c2ccccc2n1", "values": [{"measurement": "pKi", "setting": "Interstitial collagenase", "result": "< 5.31"}, {"measurement": "inhibition", "setting": "Homo sapiens", "result": 0, "unit": "%"}, {"measurement": "pKi", "setting": "[1]", "result": "< 5.48"}, {"measurement": "pKi", "setting": "Matrilysin", "result": "< 5.20"}, {"measurement": "pKi", "setting": "[2]", "result": "< 5.22"}, {"measurement": "pKi", "setting": "Stromelysin-1", "result": "< 5.35"}, {"measurement": "pKi", "setting": "[3]", "result": "< 5.67"}, {"measurement": "pIC50", "setting": "[4]", "result": 7.59}, {"measurement": "pKi", "setting": "Collagenase 3", "result": "< 5.30"}]}]}
